Measurements published in patent US9611514B2, “Method for selection of hDIS3 PIN domain inhibitors and use of hDIS3 PIN domain inhibitors for cancer treatment” (INSTYTUT BIOCHEMII I BIOFIZYKI POLSKIEJ AKADEMII NAUK, priority 2013, dated 2017).

What was measured:
[1] = target: T1, isolated PIN domain of hDIS3 (Homo sapiens, UniProt Q9Y2L1); assay: hDIS3 PIN domain endonucleolytic activity assay (RNA substrate digestion, denaturing PAGE, fluorimaging); assay type: biochemical; settings: 80 μM concentration; 5′ fluoresceine-labeled ss17-(A)34 substrate; 1 mM manganese
T1 construct: made in house
T1 sequence (Q9Y2L1 1-217): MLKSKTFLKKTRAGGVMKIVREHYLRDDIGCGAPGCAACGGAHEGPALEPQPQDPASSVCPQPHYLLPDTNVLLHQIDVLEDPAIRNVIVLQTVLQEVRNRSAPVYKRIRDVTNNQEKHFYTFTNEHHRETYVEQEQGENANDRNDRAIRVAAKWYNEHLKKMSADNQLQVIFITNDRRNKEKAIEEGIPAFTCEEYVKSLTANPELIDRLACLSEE
Description: FIGS. 11A-B. 2-hydroxy-(4H)-isoquinoline-1,3-dione (AClLAHYL) inhibits the endonucleolytic activity of isolated PIN domain of hDIS3. A) SDS-PAGE analysis of the recombinant hDIS3 PIN domain; B) Activity assay. 5′ fluoresceine-labeled ss17-(A)34 substrate was incubated in a buffer containing 1 mM manganese with recombinant hDIS3 PIN domain in the presence or absence of 2-hydroxy-(4H)-isoquinoline-1,3-dione. A control reaction was also performed, which contained the inhibitor but lacked any added protein. Reactions were terminated at the indicated time points, followed by denaturing PAGE and fluorimaging.
In vitro enzymatic assays of hDIS3 exoribonucleolytic activity were performed in 10 mM Tris-HCl, pH 8.0; 75 mM NaCl; 1 mM 2-mercaptoethanol, 100 μM MgCl2. Protein concentration was 0.1 μM, while substrate concentration was 0.2 μM or 2 μM for duplex and unstructured RNA molecules, respectively. For gel-based analyses, reactions were performed at 37° C. for the indicated times and then terminated by formamide loading dye Reaction products were resolved in denaturing 20% polyacrylamide, 8 M urea, 1xTBE gels. In the case of TLC-based experiment, samples were collected by mixing aliquots of the reaction mixtures with 1 μl of 0.5 M EDTA and subsequently analysed by running them on PEI-cellulose plates (Schleicher & Schuell) in 0.5 M LiCl/1M formic acid, using non-radioactive UMP as a marker. […]

[2] = test system: yeast harboring R847K mutation (dis3-R847K); assay: Yeast growth assay, serial dilutions spotted on YPD plates; assay type: cell-based, S. cerevisiae; settings: 1 mM in YPD plates, 30° C., 60 hours
Description: (§1) FIG. 12. […] Serial dilutions of indicated yeast strains were spotted on YPD plates and YPD plates with 2-hydroxy-(4H)-isoquinoline-1,3-dione (at 1 mM concentration) and incubated at 30° C. for 60 hours.
(§2) Yeast strains described above were grown in complete YPD medium at 30° C. overnight until OD600 reached 0.2 before spotting serial dilutions onto YPD plates. Cell growth was analyzed after 60 h of incubation at 25° C., 30° C. or 37° C. Analysis of viability for strains harboring mutations in both PIN and RNB domains of Dis3 was carried out by sporulation of ADZY713 and ADZY716 diploid strains, followed by tetrad dissection.
(§3) Yeast strains harboring G833R or R847K mutations, obtained in Example II were used for growth assays. Serial dilutions of indicated yeast strains were spotted on YPD plates and YPD plates with 2-hydroxy-(4H)-isoquinoline-1,3-dione (at 1 mM concentration) and incubated at 30° C. for 60 hours.

[3] = test system: yeast harboring G833R mutation (dis3-G833R); assay: as above; assay type: cell-based, S. cerevisiae; settings: 1 mM in YPD plates, 30° C., 60 hours
Description: as §1, §2, §3

Structure (SMILES): O=C1Cc2ccccc2C(=O)N1O [2-hydroxy-(4H)-isoquinoline-1,3-dione]
- inhibition of the endonucleolytic activity of human DIS3 PIN domain [1]: efficiently inhibited
- growth inhibition of yeast harboring R847K mutation [2]: complete growth inhibition
- growth inhibition of yeast harboring G833R mutation [3]: complete growth inhibition
